Measured values reported in patent US20020115727A1, “Synthesis, methods of using, and compositions of hydroxylated cyclobutylalkylamines” (priority 2000, published 2002).
Read-outs that look alike come from different tables or passages of the source.

Columns and labels:
[1] = biological target: T1, functional uptake of serotonin (5-HT) into synaptosomes prepared from rat whole brain (Rattus norvegicus, UniProt P31652); assay: Functional uptake of serotonin (5-HT) into synaptosomes; format: biochemical; conditions: for IC50: rat whole brain synaptosomes, 10 concentrations in duplicate; for inhibition at 10 µM: read-out: inhibition of 5-HT uptake (no IC50 determined)
T1 construct: into synaptosomes prepared from rat whole brain, hypothalamus, or corpora striata, respectively; from tissue; host or cells: rat whole brain synaptosomes
Protocol: (§1) The 1-OH metabolites of N-didesmethylsibutramine (1-OH-DDMS) were tested to determine thir ability to functional uptake of serotonin (5-HT), norepinephrine (NE), or dopamine (DA), into synaptosomes prepared from rat whole brain, hypothalamus, or corpora striata, respectively. In addition, binding was determined at the nonselective muscarinic receptor and the β3-receptor from rat cerebral cortex and rat adipose tissue, respectively. The 1-OH-DDMS compounds tested contain two chiral centers (C2, C4): (2R,4R) (2S,4R), (2R,4S), and (2S,4S).
(§2) The 1-OH metabolites of N-desmethylsibutramine (DMS) were also tested to determine their ability to inhibit functional uptake of serotonin (5-HT), norepinephrine (NE), or dopamine (DA), into synaptosomes prepared from rat whole brain, hypothalamus, or corpora striata, respectively. In addition, binding was determined at the nonselective muscarinic receptor and the β3-receptor from rat cerebral cortex and rat adipose tissue, respectively. The 1-OH-DMS compounds tested contained two chiral centers (C2, C4): (2R,4R), (2S,4S), (2R,4S), and (2S,4R).

[2] = biological target: T2, functional uptake of norepinephrine (NE) into synaptosomes prepared from rat hypothalamus (Rattus norvegicus, UniProt Q63380); assay: Functional uptake of norepinephrine (NE) into synaptosomes; format: biochemical; conditions: 10 concentrations in duplicate
T2 construct: into synaptosomes prepared from rat whole brain, hypothalamus, or corpora striata, respectively; from tissue; host or cells: rat hypothalamus synaptosomes
Protocol: as §1, §2

[3] = biological target: T3, functional uptake of dopamine (DA) into synaptosomes prepared from rat corpora striata (Rattus norvegicus, UniProt P23977); assay: Functional uptake of dopamine (DA) into synaptosomes; format: biochemical; conditions: 10 concentrations in duplicate
T3 construct: into synaptosomes prepared from rat whole brain, hypothalamus, or corpora striata, respectively; from tissue; host or cells: rat corpora striata synaptosomes
Protocol: as §1, §2

[4] = biological target: T4, β3-receptor from rat adipose tissue (Rattus norvegicus, UniProt P26255); assay: Binding at the β3-receptor
T4 construct: from tissue; host or cells: rat adipose tissue
Protocol: Indeed, certain compounds have been tested. The 1-OH metabolites of N-didesmethylsibutramine (1-OH-DDMS) were tested to determine thir ability to functional uptake of serotonin (5-HT), norepinephrine (NE), or dopamine (DA), into synaptosomes prepared from rat whole brain, hypothalamus, or corpora striata, respectively. In addition, binding was determined at the nonselective muscarinic receptor and the β3-receptor from rat cerebral cortex and rat adipose tissue, respectively. The 1-OH-DDMS compounds tested contain two chiral centers (C2, C4): (2R,4R) (2S,4R), (2R,4S), and (2S,4S).
as §2

[5] = read-out: IC50 Values (nM) for 1-OH Metabolites of DDMS in Functional Uptake Assays: 5-HT
[6] = read-out: IC50 Values (nM) for 1-OH Metabolites of DDMS in Functional Uptake Assays: NE
[7] = read-out: IC50 Values (nM) for 1-OH Metabolites of DDMS in Functional Uptake Assays: DA
[8] = read-out: IC50 Values (nM) for 1-OH Metabolites of DMS in Functional Uptake Assays: 5-HT
[9] = read-out: IC50 Values (nM) for 1-OH Metabolites of DMS in Functional Uptake Assays: NE
[10] = read-out: IC50 Values (nM) for 1-OH Metabolites of DMS in Functional Uptake Assays: DA

T2 sequence (Q63380 1-617): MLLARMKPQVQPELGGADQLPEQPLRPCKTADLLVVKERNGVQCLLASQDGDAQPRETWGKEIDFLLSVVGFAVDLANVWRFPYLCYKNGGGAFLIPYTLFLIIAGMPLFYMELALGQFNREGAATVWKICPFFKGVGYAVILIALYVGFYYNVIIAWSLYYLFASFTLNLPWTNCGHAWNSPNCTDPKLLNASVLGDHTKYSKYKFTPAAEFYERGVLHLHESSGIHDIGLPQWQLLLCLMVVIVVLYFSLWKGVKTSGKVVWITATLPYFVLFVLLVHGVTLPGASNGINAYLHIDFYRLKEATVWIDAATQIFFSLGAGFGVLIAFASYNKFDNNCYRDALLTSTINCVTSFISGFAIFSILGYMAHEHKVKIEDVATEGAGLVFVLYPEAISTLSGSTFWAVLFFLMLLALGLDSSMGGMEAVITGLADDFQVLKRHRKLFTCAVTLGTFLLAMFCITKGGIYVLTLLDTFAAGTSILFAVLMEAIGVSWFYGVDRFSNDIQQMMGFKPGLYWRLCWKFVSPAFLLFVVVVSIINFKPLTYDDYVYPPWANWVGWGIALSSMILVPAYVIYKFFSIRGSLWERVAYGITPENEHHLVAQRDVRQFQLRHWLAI
T3 sequence (P23977 whole entry): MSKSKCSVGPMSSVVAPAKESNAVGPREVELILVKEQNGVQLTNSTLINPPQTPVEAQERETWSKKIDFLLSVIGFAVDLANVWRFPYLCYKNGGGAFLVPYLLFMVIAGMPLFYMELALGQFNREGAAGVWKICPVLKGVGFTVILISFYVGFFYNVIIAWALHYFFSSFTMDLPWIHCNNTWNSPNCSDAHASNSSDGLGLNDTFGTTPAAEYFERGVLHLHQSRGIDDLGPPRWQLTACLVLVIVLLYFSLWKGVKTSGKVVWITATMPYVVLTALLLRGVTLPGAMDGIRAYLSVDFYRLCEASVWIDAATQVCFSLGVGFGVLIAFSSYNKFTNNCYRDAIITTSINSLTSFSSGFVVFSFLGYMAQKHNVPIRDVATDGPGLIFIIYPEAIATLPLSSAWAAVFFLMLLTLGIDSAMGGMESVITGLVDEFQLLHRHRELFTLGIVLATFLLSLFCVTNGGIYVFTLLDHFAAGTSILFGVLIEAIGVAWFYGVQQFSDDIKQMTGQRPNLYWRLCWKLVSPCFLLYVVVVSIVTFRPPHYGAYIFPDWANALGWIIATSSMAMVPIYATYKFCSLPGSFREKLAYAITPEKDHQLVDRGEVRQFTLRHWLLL
T1 sequence (P31652 whole entry): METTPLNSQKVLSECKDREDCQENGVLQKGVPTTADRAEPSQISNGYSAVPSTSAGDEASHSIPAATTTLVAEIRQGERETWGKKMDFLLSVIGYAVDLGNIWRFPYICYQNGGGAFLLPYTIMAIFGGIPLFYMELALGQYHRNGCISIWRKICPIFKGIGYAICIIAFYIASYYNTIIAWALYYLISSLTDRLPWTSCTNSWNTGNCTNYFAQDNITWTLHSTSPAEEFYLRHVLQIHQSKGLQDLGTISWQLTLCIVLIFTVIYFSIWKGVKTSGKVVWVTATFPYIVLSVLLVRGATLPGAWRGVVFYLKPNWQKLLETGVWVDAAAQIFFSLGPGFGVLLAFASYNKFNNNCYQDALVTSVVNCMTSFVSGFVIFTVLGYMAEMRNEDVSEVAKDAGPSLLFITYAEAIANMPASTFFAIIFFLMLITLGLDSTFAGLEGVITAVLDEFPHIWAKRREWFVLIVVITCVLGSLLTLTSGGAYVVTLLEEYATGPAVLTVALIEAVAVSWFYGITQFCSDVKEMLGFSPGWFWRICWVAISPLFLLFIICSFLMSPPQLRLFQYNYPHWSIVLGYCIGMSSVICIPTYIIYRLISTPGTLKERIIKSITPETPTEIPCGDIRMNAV
T4 sequence (P26255 whole entry): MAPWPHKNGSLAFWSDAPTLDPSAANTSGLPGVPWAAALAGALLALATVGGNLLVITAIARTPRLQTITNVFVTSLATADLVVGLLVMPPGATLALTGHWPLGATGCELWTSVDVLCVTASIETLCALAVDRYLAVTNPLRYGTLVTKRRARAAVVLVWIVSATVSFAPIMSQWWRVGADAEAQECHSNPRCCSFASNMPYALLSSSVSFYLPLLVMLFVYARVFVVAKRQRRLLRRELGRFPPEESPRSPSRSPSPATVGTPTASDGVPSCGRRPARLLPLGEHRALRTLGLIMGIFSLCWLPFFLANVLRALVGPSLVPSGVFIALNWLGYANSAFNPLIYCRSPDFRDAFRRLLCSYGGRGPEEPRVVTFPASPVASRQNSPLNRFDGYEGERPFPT

| Structure (SMILES) | IC50 [1, 5] | IC50 [2, 6] | IC50 [3, 7] | IC50 [1, 8] | IC50 [2, 9] | IC50 [3, 10] | inhibition at 10 µM [1] | inhibition at 10 µM ([4]; read-out: inhibition at the β3-receptor (1-OH-DMS compounds)) | inhibition at 10 µM ([4]; read-out: inhibition at the β3-receptor (1-OH-DDMS compounds)) |
| --- | --- | --- | --- | --- | --- | --- | --- | --- | --- |
| C[C@@H](CO)C[C@@H](N)C1(c2ccc(Cl)cc2)CCC1 [(2R,4R)-1-OH-DDMS, (2R, 4R)-4-Amino-4-[1-(4-chlorophenyl)cyclobutyl]-2-methyl-butan-1-ol] | 34 nM | 4.7 nM | 27 nM | – | – | – | – | – | – |
| CN[C@H](C[C@@H](C)CO)C1(c2ccc(Cl)cc2)CCC1 [(2R,4R)-1-OH-DMS] | – | – | – | 12 nM | 2.2 nM | 19 nM | – | – | – |
| C[C@@H](CO)C[C@H](N)C1(c2ccc(Cl)cc2)CCC1 [(2R,4S)-1-OH-DDMS, (2R, 4S)-4-Amino-4-[1-(4-chlorophenyl)cyclobutyl]-2-methyl-butan-1-ol] | 2000 nM | 71 nM | 110 nM | – | – | – | – | – | – |
| CN[C@@H](C[C@@H](C)CO)C1(c2ccc(Cl)cc2)CCC1 [(2R,4S)-1-OH-DMS, (2R, 4S)-4-Methylamino-4-[1-(4-chlorophenyl)cyclobutyl]-2-methyl-butan-1-ol] | – | – | – | – | 74 nM | 2500 nM | < 50% | – | – |
| C[C@H](CO)C[C@@H](N)C1(c2ccc(Cl)cc2)CCC1 [(2S,4R)-1-OH-DDMS, (2S,4R)-4-Amino-4-[1-(4-chlorophenyl)cyclobutyl]-2-methyl-butan-1-ol] | 65 nM | 11 nM | 37 nM | – | – | – | – | – | – |
| CN[C@H](C[C@H](C)CO)C1(c2ccc(Cl)cc2)CCC1 [(2S,4R)-1-OH-DMS, (2S, 4R)-4-Methylamino-4-[1-(4-chlorophenyl)cyclobutyl]-2-methyl-butan-1-ol] | – | – | – | 160 nM | 9.3 nM | 37 nM | – | 24% | – |
| C[C@H](CO)C[C@H](N)C1(c2ccc(Cl)cc2)CCC1 [(2S,4S)-1-OH-DDMS, (2S, 4S)-4-Amino-4-[1-(4-chlorophenyl)cyclobutyl]-2-methyl-butan-1-ol] | 1200 nM | 150 nM | 33 nM | – | – | – | – | – | 30% |
| CN[C@@H](C[C@H](C)CO)C1(c2ccc(Cl)cc2)CCC1 [(2S,4S)-1-OH-DMS, (2S, 4S)-4-Methylamino-4-[1-(4-chlorophenyl)cyclobutyl]-2-methyl-butan-1-ol] | – | – | – | – | 250 nM | 430 nM | < 50% | – | – |
